Key:
dopamine D2 receptors [1] = target: T1, dopamine D2 receptors (Homo sapiens (Human), UniProt P14416); test: Dopamine D2 receptor radioligand competition binding assay ([3H]-Methylspiperone); conditions: [3H]-Methylspiperone 0.3 to 0.5 nM, 293T membranes; read-out: Affinity Ki
Summary of the method: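 Membranes from cells transfected with human D2 receptor, PEI-mediated; competition with [3H]-methylspiperone for 2 h at room temperature in the dark.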

[2] = target: T2, 5-hydroxytryptamine 1A (5-HT1A) receptors (Homo sapiens (Human), UniProt P08908); test: 5-HT1A receptor radioligand competition binding assay ([3H]-LSD); conditions: 293T membranes, read-out: Affinity Ki
Method: The affinity of the compounds of the present disclosure for 5-hydroxytryptamine 1A (5-HT1A) receptors was determined by a radioligand competition binding assay.
In the first step, a cell membrane component containing specific 5-HT1A receptors was prepared. […] A vacuum pump was used to suck off the culture medium, 3 mL of lysis buffer was added to each culture dish, and the cells were placed in a 4° C. cold room for 10 minutes. After the cells were detached, the cells were transferred to a 15 mL centrifuge tube and centrifuged at 1500 rpm for 5 minutes at 4° C., and the supernatant was discarded. The cell pellet was transferred to a tissue homogenizer, and 3 mL of lysis buffer was added and fully ground until the cells were broken. Then, cell suspension was equally aliquoted into several EP tubes, centrifuged at 12000 rpm for 5 minutes at 4° C., and the supernatant was discarded. The precipitate was the cell membrane component containing the 5-HT1A receptors.
First, a standard binding buffer was added to the cell membrane component containing the 5-HT1A receptors, and the cell membrane was disrupted and resuspended with an electric tissue homogenizer. 30 μL of membrane protein suspension was added to each well of a 96-well plate. Then, 30 μL of different drugs were added to the 96-well plate sequentially from bottom to top to ensure that the final drug concentrations were 10^−5 M, 10^−6 M, 10^−7 M, 10^−8 M, 10^−9 M, and 0 M, with two replicates per treatment. Next, 30 μL of [^3H]-LSD was added to each well of the 96-well plate. The plate was incubated at room temperature in the dark for 2 hours. Detection was conducted. The machine readout value reflected the amount of [^3H]-LSD bound on the membrane, and after further data processing, the binding affinity Ki values of different compounds for the 5-HT1A receptors were obtained.

[3] = target: T2, 5-hydroxytryptamine 1A (5-HT1A) receptors; test: 5-HT1A receptor Gαi1 BRET (G protein trimer dissociation); assay type: cell-based; conditions: relative to endogenous ligand 5-hydroxytryptamine
[4] = target: T2, 5-hydroxytryptamine 1A (5-HT1A) receptors; test: 5-HT1A receptor β-arrestin2 BRET (recruitment); assay type: cell-based; conditions: relative to endogenous ligand 5-hydroxytryptamine
Method: At the same time, in order to examine the downstream β-arrestin2 signaling pathway mediated by 5-HT1A receptors, on the first day, a 6 cm culture dish was used for transfection with 500 ng of 5-HT1A receptors containing C-terminal seaweed luciferase (5HT1AR-Rluc), 500 ng of G protein-coupled receptor kinase 2 (GRK2), 2500 ng of β-arrestin2 containing N-terminal green fluorescent protein (GFP2-ARRB2), and 14 μL of PEI. The next day, the confluent cells of a 6 cm culture dish were digested and reseeded into a 96-well plate with 100 μL of culture medium added to each well. On the third day, the drugs were added for test. The 96-well plate was taken out from the cell incubator to decant the culture medium, 40 µL of the substrate coelenterazine 400a (final concentration of 5 μM) was added to each well, and then 20 μL of different drugs were added sequentially from left to right to ensure that the final concentration of the drug decreased gradually from bottom to top, with two replicates per treatment. Finally, the prepared samples were loaded on machine for test. The machine readout value reflected the recruitment of β-arrestin2 to the membrane or the dissociation of G protein trimer. The former indicated the degree of activation of the β-arrestin2 signaling pathway downstream of the 5-HT1 serotonin 1A receptors, and the latter indicated the degree of activation of the G protein signaling pathway downstream of the serotonin 1A receptors.

dopamine D2 receptors [5] = target: T1, dopamine D2 receptors; test: Dopamine D2 receptor Gαi1 BRET (G protein trimer dissociation); assay type: cell-based; conditions: for Emax: relative to endogenous ligand dopamine, read-out: Gαi1 BRET Emax % ± SEM; for EC50: unit printed only in Cariprazine cell, read-out: Gαi1 BRET EC50
Summary of the method: (§1)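 G-protein assay: cells co-transfected with D2 receptor, Gαi1-Rluc, Gβ3 and Gγ9-GFP (1 μg each); β-arrestin2 assay: D2-Rluc, GRK2 and GFP2-β-arrestin2 co-transfected. Cells were reseeded after one day and tested on day three. Drug dilution series were added in duplicate with coelenterazine 400a (5 μM final), and the BRET signal was read.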

dopamine D2 receptors [6] = target: T1, dopamine D2 receptors; test: Dopamine D2 receptor β-arrestin2 BRET (recruitment); assay type: cell-based; conditions: for Emax: relative to endogenous ligand dopamine, read-out: β-arrestin2 BRET Emax % ± SEM; for EC50: unit printed only in Cariprazine cell, read-out: β-arrestin2 BRET EC50
Summary of the method: as §1

T2 sequence (P08908 whole entry): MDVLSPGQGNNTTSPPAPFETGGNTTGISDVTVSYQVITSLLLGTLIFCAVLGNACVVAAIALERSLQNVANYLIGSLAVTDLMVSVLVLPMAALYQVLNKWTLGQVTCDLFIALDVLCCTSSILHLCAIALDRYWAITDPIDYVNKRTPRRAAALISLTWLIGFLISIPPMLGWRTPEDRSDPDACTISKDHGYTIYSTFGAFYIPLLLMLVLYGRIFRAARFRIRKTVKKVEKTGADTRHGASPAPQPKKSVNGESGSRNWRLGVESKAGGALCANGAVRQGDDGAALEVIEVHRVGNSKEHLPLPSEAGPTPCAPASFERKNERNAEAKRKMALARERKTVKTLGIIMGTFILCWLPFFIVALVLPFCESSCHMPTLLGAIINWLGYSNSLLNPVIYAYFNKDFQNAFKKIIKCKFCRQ
T1 sequence (P14416 whole entry): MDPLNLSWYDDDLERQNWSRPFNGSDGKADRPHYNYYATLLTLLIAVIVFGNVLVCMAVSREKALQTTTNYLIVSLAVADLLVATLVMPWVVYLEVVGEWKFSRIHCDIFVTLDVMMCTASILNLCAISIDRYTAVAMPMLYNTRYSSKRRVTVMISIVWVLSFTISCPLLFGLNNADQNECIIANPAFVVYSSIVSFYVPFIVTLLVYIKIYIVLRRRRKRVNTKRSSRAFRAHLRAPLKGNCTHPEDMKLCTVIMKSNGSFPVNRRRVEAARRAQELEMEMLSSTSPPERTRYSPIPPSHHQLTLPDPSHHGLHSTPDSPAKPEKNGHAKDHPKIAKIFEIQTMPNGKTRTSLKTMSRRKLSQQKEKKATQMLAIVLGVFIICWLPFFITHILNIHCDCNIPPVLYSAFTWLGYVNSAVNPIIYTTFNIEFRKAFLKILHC

| SMILES | Ki (dopamine D2 receptors [1]) [nM] | Ki [2] [nM] | Emax [3] [%] | Emax [4] [%] | Emax (dopamine D2 receptors [5]) [%] | EC50 (dopamine D2 receptors [5]) [nM] | Emax (dopamine D2 receptors [6]) [%] | EC50 (dopamine D2 receptors [6]) [nM] |
| --- | --- | --- | --- | --- | --- | --- | --- | --- |
| COc1cccc2c3c(oc12)CN(CCNC(=O)C1CCC(F)(F)CC1)CC3 [I-A15, 4,4-difluoro-N-(2-(8-methoxy-3,4-dihydrobenzofuro[2,3-c]pyridin-2(1H)-yl)ethyl)cyclohexane-1-carboxamide] | 272 | 5.43 | 123 | 92 | – | – | – | – |
| COc1cccc2c3c(oc12)CN(CCCCn1ncc(=O)n(C)c1=O)CC3 [I-A22, 2-(4-(8-methoxy-3,4-dihydrobenzofuro[2,3-c]pyridin-2(1H)-yl)butyl)-4-methyl-1,2,4-triazine-3,5(2H,4H)-dione] | – | 0.073 | 59.5 | 49.6 | 79 | 56 | 89 | 86.4 |
| CCOc1cccc2c3c(oc12)CN(CCNC(=O)C1CCCCCC1)CC3 [I-A32, N-(2-(8-ethoxy-3,4-dihydrobenzofuro[2,3-c]pyridin-2(1H)-yl)ethyl)cycloheptanecarboxamide] | – | 2.55 | 102 | 31.6 | 21 | 12.9 | 12 | 233 |

— patent US20250109139A1, “TRICYCLIC COMPOUND, AND PREPARATION METHOD THEREFOR AND USE THEREOF” (SHANGHAITECH UNIVERSITY, priority 2022, published 2025)
